Source: US20250222009A1, “DINUCLEAR GOLD(I) COMPLEXES FOR TREATING CANCER” (KING FAHD UNIVERSITY OF PETROLEUM AND MINERALS, priority 2024, published 2025)

Legend:
MCF-7 (breast cancer) = test: MTT cytotoxicity assay, MCF-7; format: cell-based; settings: 72 h, mean, SD in next cell
Method: (§1) The human epithelial ovarian cancer A2780 cell line and its cisplatin-resistant clone A2780cis were obtained from Sigma-Aldrich (Milano, Italy). A2780cis cells were continuously exposed to 1 μM cisplatin to maintain cisplatin resistance. A549 cells (Human non-small cell lung cancer), MCF7 (metastatic breast cancer), PC3 (highly aggressive metastatic prostate cancer), and MG63 (osteosarcoma) were obtained from the American Type Culture Collection (ATCC). Cells were authenticated in laboratory using the PowerPlex 16 HS System. A2780, A2780cis, and PC3 cells were cultured in RPMI-1640 medium; MG63 and MCF7 cells were cultured in DMEM, and A549 cells were cultured in F12 NUT-MIX. The culture medium contained about 10% fetal bovine serum (FBS) (Gibco, Thermo Fisher Scientific, Monza, Italy), about 1% (v/v) of penicillin (10,000 units/mL)-streptomycin (10 mg/mL), and about 1% (v/v) L-glutamine (200 mM) (all from Sigma-Aldrich). Cells were cultured at 37° C. in a 5% CO2, fully humidified atmosphere.
(§2) 2.5×10^3 (PC3, MG63, MCF7) or 4.0×10^3 (A2780, A2780cis, A549) cells were seeded in 96-well microplates in 100 μL culture medium. Cells, allowed to adhere for 24 h, were then treated in triplicate with increasing concentrations of gold compounds. Cisplatin was included as a reference drug. Cell viability was evaluated using 3-(4,5-dimethylthiazol-2-yl)-2,5-diphenyltetrazolium bromide (MTT) assay (Sigma-Aldrich) after 72 h of treatment. Half maximal inhibitory concentrations (IC50), IC25, and IC75 were calculated using the CalcuSyn software version 2 (Biosoft, Ferguson, MO, USA) (See: Chou, T. C.; Talalay, P. Quantitative Analysis of Dose-Effect Relationships: The Combined Effects of Multiple Drugs or Enzyme Inhibitors. Adv. Enzyme Regul. 1984, 22, 27-55, which is incorporated herein by reference in its entirety). Fold resistance was calculated as the ratio of the IC50 of the A2780cis to that of the parental cell line A2780. Alternatively, cell viability was assayed by crystal violet staining (See: Feoktistova, M.; Geserick, P.; Leverkus, M. Crystal Violet Assay for Determining Viability of Cultured Cells. Cold Spring Harb Protoc 2016, 2016, pdb.prot087379, which is incorporated herein by reference in its entirety). Alternatively, after drug treatment, the culture Medium was removed, cells washed, fixed, and stained, and the Crystal Violet solution lasted 20 minutes (See: Sulaiman, A. A. A.; Casagrande, N.; Borghese, C.; Corona, G.; Isab, A. A.; Ahmad, S.; Aldinucci, D.; Altaf M. Design, Synthesis, and Preclinical Activity in Ovarian Cancer Models of New Phosphanegold(I)—N-Heterocyclic Carbene Complexes. J Med Chem 2022, 65, 14424-14440, which is incorporated herein by reference in its entirety).

A549-MCTSs = test: 3D-A549-MCTS viability (PrestoBlue); format: cell-based, human; settings: 72 h, PrestoBlue, poly-HEMA coated wells
Method: To obtain multiple spheroids, 10.0×10^4 A549 cells were seeded in non-adherent conditions on poly-HEMA coated 96 wells (final volume, 200 μL) for four days. After drug treatment (72 h), the cell viability was determined using PrestoBlue Cell Viability Reagent (Thermo Fisher Scientific, Frederick, MD, USA) (See: Casagrande, N.; Celegato, M.; Borghese, C.; Mongiat, M.; Colombatti, A.; Aldinucci, D. Preclinical Activity of the Liposomal Cisplatin Lipoplatin in Ovarian Cancer. Clin Cancer Res 2014, 20, 5496-5506, which is incorporated herein by reference in its entirety).
3D-MCTSs are a model for in vitro drug testing (See: Zanoni, M.; Piccinini, F.; Arienti, C.; Zamagni, A.; Santi, S.; Polico, R.; Bevilacqua, A.; Tesei, A. 3D Tumor Spheroid Models for in Vitro Therapeutic Screening: A Systematic Approach to Enhance the Biological Relevance of Data Obtained. Sci Rep 2016, 6, 19103, which is incorporated herein by reference in its entirety) and to test drug tissue penetration. Thus, the effects of complex 3 in A549-MCTSs were determined by cultivating tumor cells in non-adherent conditions on poly-HEMA coated wells. […] Representative micro-photographs of A549-MCTSs treated with complex 3 (0.3-5 μM) and with cisplatin (15-250 μM) are shown in FIG. 9C.

TrxR = test: Thioredoxin reductase activity in treated cell lysates; format: cell-based, human; settings: A549 cells treated 24 h
Method: Cells were treated with complex 3 (24 h) and then lysed in 50 mM Tris-HCl pH 7.6, 0.1% Triton X-100, 0.9% NaCl to obtain the TrxR activity. TrxR (EC 1.8.1.9) was assayed using the Thioredoxin Reductase Assay Kit (Sigma-Aldrich). Enzyme activity was determined by reading the absorbance at 412 nm using a spectrophotometer (Biomate 3 Thermo Spectronic, Thermo Electronic Corporation, Monza, Italy) and normalized to the protein concentration, determined with the Bio-Rad protein assay (Protein Assay Dye Reagent Concentrate, Bio-Rad Laboratories, Segrate, Italy).

MG-63 (osteosarcoma) = test: MTT cytotoxicity assay, MG-63; format: cell-based; settings: 72 h, mean, SD in next cell
Method: as §1
2.5×10^3 (PC3, MG63, MCF7) or 4.0×10^3 (A2780, A2780cis, A549) cells were seeded in 96-well microplates in 100 μL culture medium. Cells, allowed to adhere for 24 h, were then treated in triplicate with increasing concentrations of gold compounds. Cisplatin was included as a reference drug. Cell viability was evaluated using 3-(4,5-dimethylthiazol-2-yl)-2,5-diphenyltetrazolium bromide (MTT) assay (Sigma-Aldrich) after 72 h of treatment. Half maximal inhibitory concentrations (IC50), IC25, and IC75 were calculated using the CalcuSyn software version 2 (Biosoft, Ferguson, MO, USA) (See: Chou, T. C.; Talalay, P. Quantitative Analysis of Dose-Effect Relationships: The Combined Effects of Multiple Drugs or Enzyme Inhibitors. Adv. Enzyme Regul. 1984, 22, 27-55, which is incorporated herein by reference in its entirety). Fold resistance was calculated as the ratio of the IC50 of the A2780cis to that of the parental cell line A2780. […]

A549 (lung cancer cells) = test: MTT cytotoxicity assay, A549; format: cell-based, human; settings: 72 h
Method: as §1, §2

[1] = tested on: PC3 (androgen-resistant prostate cancer); test: MTT cytotoxicity assay, PC3; format: cell-based; settings: 72 h, mean (SD)
Method: as §1, §2

CC(C)c1cccc(C(C)C)c1-n1ccn(-c2c(C(C)C)cccc2C(C)C)[c]1=[Au-][P+](CCNCC[P+]([Au-]=[c]1n(-c2c(C(C)C)cccc2C(C)C)ccn1-c1c(C(C)C)cccc1C(C)C)(C1CCCCC1)C1CCCCC1)(C1CCCCC1)C1CCCCC1 [Complex 3, [(Au(IPr))2(C28H24P2)](PF6)2]
IC50 (MCF-7 (breast cancer)): 430 nM | IC50 (A549-MCTSs): 950 nM | TrxR enzymatic activity (TrxR): not modified | IC50 (MG-63 (osteosarcoma)): 160 nM | IC25 A549 (A549 (lung cancer cells)): 60 nM | IC75 A549 (A549 (lung cancer cells)): 600 nM | IC50 (A549 (lung cancer cells); mean (SD)): 130 nM | IC50 [1]: 240 nM
